Reference: patent US11414425B2 (priority 2018, dated 2022)
Like-named read-outs stand apart in the source and are kept apart here.

Assays:
GABAA receptors (α5β2γ2) = target: T1, GABAA receptors (α5β2γ2) (Homo sapiens, UniProt P18507+P31644); test: Positive allosteric modulator activity: potentiation of EC20 GABA current in oocytes; format: cell-based; conditions: read-out: GABA α5 Functional Data (potentiation of EC20 GABA)
T1 construct: expressed in transfected cells
Method: On day 1, 1 ng/32 nL of GABAA α5β2γ2 cDNA was injected into one oocyte. Test starts on day 2. The cDNA injected to the oocytes was a mix of alpha, beta and gamma, their ratio is 1:1:10 (by weight) and the total weight of the mixed 3 subunits to be injected in one oocyte was 1 ng in 32 nl volume. The injected oocytes can also be tested on day 3. In such case, the cDNA amount injected to the oocytes should be reduced by 20%.
1). 8 oocytes were placed in 8 chambers of OpusXpress and superfused with Modified Barth's Saline (MBS) at 3 mL/min. Glass electrodes back-filled with 3M KCl (0.5-3 megaohms) were used.
1). New oocytes were used to run new test.
3). […] Oocytes were washed with MBS for 5-10 min.
4). […] Itest was divided by IGABA to obtain potentiation (%).
Test Compounds at Multiple Doses • 1). Repeat the above steps 1), 2) and 3) in the control test. • 2). […] Divide Itest by IGABA to obtain potentiation (%). • 3). Discard all tested oocytes, new oocytes were used and the above steps 1) and 2) were repeated to test second concentration of the same compound. Each oocyte was used for only one concentration test for a single test compound. The steps were repeated for other test compounds.

α5β3γ2 GABAA receptors = α5β3γ2 GABAA receptors (Homo sapiens, UniProt P18507+P31644); test: [3H]Ro15-1788 binding, membranes of Ltk cells stably expressing α5β3γ2 GABAA receptors
α5β3γ2 GABAA receptors, sequence (P31644 32-462): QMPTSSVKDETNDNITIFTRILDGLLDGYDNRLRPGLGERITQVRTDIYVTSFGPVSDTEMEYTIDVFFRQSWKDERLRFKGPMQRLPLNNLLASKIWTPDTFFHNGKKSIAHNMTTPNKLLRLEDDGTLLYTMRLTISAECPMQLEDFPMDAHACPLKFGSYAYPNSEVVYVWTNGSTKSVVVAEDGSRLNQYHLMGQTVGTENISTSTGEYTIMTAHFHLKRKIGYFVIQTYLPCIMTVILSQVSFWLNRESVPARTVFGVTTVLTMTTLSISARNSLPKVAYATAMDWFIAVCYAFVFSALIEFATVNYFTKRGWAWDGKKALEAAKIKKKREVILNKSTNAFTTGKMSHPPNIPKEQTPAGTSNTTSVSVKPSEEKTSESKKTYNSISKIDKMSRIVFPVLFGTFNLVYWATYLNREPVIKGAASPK
α5β3γ2 GABAA receptors, sequence (P28472 26-473 partner): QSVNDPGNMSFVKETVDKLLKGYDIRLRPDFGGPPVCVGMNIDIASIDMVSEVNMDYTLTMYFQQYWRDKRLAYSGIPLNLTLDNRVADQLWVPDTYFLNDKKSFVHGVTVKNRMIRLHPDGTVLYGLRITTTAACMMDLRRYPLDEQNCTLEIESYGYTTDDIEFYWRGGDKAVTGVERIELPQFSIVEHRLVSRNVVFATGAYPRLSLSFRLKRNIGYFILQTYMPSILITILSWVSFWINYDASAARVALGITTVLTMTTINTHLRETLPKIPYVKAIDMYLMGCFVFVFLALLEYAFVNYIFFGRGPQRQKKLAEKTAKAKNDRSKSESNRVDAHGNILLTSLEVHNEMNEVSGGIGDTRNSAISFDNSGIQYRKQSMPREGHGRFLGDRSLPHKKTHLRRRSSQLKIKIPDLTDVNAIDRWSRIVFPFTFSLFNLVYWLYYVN
α5β3γ2 GABAA receptors, sequence (P18507 40-475): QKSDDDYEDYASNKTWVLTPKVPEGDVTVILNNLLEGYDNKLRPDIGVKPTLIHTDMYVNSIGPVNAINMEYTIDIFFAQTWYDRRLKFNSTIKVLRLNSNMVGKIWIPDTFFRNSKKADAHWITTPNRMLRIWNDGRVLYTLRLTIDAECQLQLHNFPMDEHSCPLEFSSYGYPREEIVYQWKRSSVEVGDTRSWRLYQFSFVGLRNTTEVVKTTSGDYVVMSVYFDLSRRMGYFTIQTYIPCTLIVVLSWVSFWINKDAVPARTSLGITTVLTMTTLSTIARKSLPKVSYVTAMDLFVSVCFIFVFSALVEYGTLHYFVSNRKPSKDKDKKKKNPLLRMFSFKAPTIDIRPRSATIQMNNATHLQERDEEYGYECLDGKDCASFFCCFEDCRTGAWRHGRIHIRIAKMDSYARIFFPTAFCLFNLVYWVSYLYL

[1] = ranges, inhibition of [3H]Ro15-1788 binding

T1 sequence (P31644 32-462): as the sequence (P31644 32-462) above
T1 sequence (P47870 25-512, further chain): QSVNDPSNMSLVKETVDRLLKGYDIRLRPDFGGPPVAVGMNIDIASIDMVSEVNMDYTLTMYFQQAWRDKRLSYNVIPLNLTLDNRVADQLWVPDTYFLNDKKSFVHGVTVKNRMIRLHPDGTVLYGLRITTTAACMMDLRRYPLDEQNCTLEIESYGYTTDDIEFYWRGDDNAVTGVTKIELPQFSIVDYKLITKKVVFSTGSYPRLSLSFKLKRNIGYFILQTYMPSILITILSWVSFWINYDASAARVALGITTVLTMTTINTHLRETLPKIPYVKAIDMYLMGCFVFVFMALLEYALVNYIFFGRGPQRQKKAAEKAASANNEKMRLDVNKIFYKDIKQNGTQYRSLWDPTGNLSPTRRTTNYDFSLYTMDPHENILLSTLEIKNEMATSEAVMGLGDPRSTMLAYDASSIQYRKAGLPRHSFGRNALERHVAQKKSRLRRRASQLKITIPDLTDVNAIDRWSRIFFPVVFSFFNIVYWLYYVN
T1 sequence (P18507 40-475): as the sequence (P18507 40-475) above

Row | Compound | activation at 0.1 µM (GABAA receptors (α5β2γ2); @ 100 nM, ranges) [%] | Ki (α5β3γ2 GABAA receptors; [1]) [µM] | activation at 0.1 µM (GABAA receptors (α5β2γ2)) [%] | Ki (α5β3γ2 GABAA receptors) [µM]
1 | Cc1nc(-c2ncn3c2Cc2c(Cc4ccc(F)cc4)nnn2-c2cc(C(F)(F)F)ccc2-3)no1 [Compound 493] | 5 to 20 | < 0.1 | – | –
2 | CC(C)c1noc(-c2ncn3c2Cc2c(Cc4ccc(F)cc4)nnn2-c2cc(OC(F)F)ccc2-3)n1 [Compound 494] | 20 to 50 | < 0.1 | – | –
3 | COc1ccc(C#Cc2ncn3c2Cc2cnnn2-c2cc(OC(F)F)ccc2-3)cc1 [Compound 498] | 5 to 20 | < 0.1 | – | –
4 | COc1ccc(C#Cc2ncn3c2Cc2cnnn2-c2cc(C(F)(F)F)ccc2-3)cc1 [Compound 499] | 20 to 50 | < 0.1 | – | –
5 | Fc1ccc(C#Cc2ncn3c2Cc2cnnn2-c2cc(OC(F)F)ccc2-3)cc1 [Compound 500] | 5 to 20 | < 0.1 | – | –
6 | Fc1ccc(C#Cc2ncn3c2Cc2cnnn2-c2cc(C(F)(F)F)ccc2-3)cc1 [Compound 501] | 20 to 50 | < 0.1 | – | –
7 | FC(F)(F)c1ccc2c(c1)-n1nncc1Cc1c(C#CC3(c4ccccc4)CC3)ncn1-2 [Compound 503] | 5 to 20 | < 0.1 | – | –
8 | FC(F)Oc1ccc2c(c1)-n1nncc1Cc1c(C#CC3(c4ccccc4)CC3)ncn1-2 [Compound 504] | 5 to 20 | < 0.1 | – | –
9 | Brc1ccc2c(c1)-n1nncc1Cc1c(C3=N[C@H](c4ccccc4)CO3)ncn1-2 [Compound 505] | 20 to 50 | < 0.1 | – | –
10 | FC(F)(F)Oc1ccc2c(c1)-n1nncc1Cc1c(C3=N[C@H](c4ccccc4)CO3)ncn1-2 [Compound 507] | 5 to 20 | < 0.1 | – | –
11 | Cc1nnc(-c2ncn3c2Cc2cnnn2-c2cc(Cl)ccc2-3)o1 [Compound 508] | 5 to 20 | < 0.1 | – | –
12 | Cc1nnc(-c2ncn3c2Cc2cnnn2-c2cc(Cl)ccc2-3)s1 [Compound 509] | – | – | 20 to 50 | < 0.1
13 | COc1ccc2c(c1)-n1nncc1Cc1c(C3=NC[C@H](c4ccccc4)O3)ncn1-2 [Compound 511] | 5 to 20 | < 0.1 | – | –
14 | COc1ccc2c(c1)-n1nncc1Cc1c(C3=NC[C@@H](c4ccccc4)O3)ncn1-2 [Compound 512] | 5 to 20 | < 0.1 | – | –
15 | Clc1ccc2c(c1)-n1nncc1Cc1c(C3=NC[C@H](c4ccccc4)O3)ncn1-2 [Compound 513] | 20 to 50 | < 0.1 | – | –
16 | Clc1ccc2c(c1)-n1nncc1Cc1c(C3=NC[C@@H](c4ccccc4)O3)ncn1-2 [Compound 514] | 5 to 20 | < 0.1 | – | –
17 | Clc1cccc([C@@H]2COC(c3ncn4c3Cc3cnnn3-c3cc(Cl)ccc3-4)=N2)c1 [Compound 515] | 5 to 20 | < 0.1 | – | –
18 | COc1ccc2c(c1)-n1nncc1Cc1c(C3=N[C@H](c4cccc(Cl)c4)CO3)ncn1-2 [Compound 516] | 5 to 20 | < 0.1 | – | –
19 | COc1ccc2c(c1)-n1nncc1Cc1c(C3=N[C@H](c4ccc(Cl)cc4)CO3)ncn1-2 [Compound 517] | 20 to 50 | < 0.1 | – | –

Row | Compound | activation at 0.1 µM (GABAA receptors (α5β2γ2); @ 100 nM, ranges) [%] | Ki (α5β3γ2 GABAA receptors; [1]) [µM] | activation at 0.1 µM (GABAA receptors (α5β2γ2)) [%] | Ki (α5β3γ2 GABAA receptors) [µM]
20 | Clc1ccc([C@@H]2COC(c3ncn4c3Cc3cnnn3-c3cc(Cl)ccc3-4)=N2)cc1 [Compound 518] | 5 to 20 | < 0.1 | – | –
21 | COc1ccc2c(c1)-n1nncc1Cc1c(C3=N[C@H](c4ccc(F)cc4)CO3)ncn1-2 [Compound 519] | 20 to 50 | < 0.1 | – | –
22 | COc1ccc([C@@H]2COC(c3ncn4c3Cc3cnnn3-c3cc(OC)ccc3-4)=N2)cc1 [Compound 520] | 5 to 20 | < 0.1 | – | –
23 | COc1ccc([C@@H]2COC(c3ncn4c3Cc3cnnn3-c3cc(Cl)ccc3-4)=N2)cc1 [Compound 521] | 20 to 50 | < 0.1 | – | –
24 | Fc1ccc([C@@H]2COC(c3ncn4c3Cc3cnnn3-c3cc(Cl)ccc3-4)=N2)cc1 [Compound 522] | 5 to 20 | < 0.1 | – | –
25 | Clc1ccc2c(c1)-n1nncc1Cc1c(-c3cn(Cc4ccccc4)nn3)ncn1-2 [Compound 523] | 5 to 20 | < 0.1 | – | –
26 | COCc1nnc2n1Cc1c(C#Cc3ccc(OC)cc3)ncn1-c1ccc(Cl)cc1-2 [Compound 526] | 5 to 20 | < 0.1 | – | –
27 | COCc1nnc2n1Cc1c(C#Cc3ccc(OC)nc3)ncn1-c1ccc(Cl)cc1-2 [Compound 527] | 20 to 50 | < 0.1 | – | –
28 | COCc1nnc2n1Cc1c(C#Cc3ccc(OC)cn3)ncn1-c1ccc(Cl)cc1-2 [Compound 528] | > 50 | < 0.1 | – | –
29 | COc1ccc2c(c1)-n1nncc1Cc1c(C#Cc3ccc(OC)nc3)ncn1-2 [Compound 530] | 5 to 20 | < 0.1 | – | –
30 | COc1ccc(C#Cc2ncn3c2Cc2cnnn2-c2cc(OC)ccc2-3)nc1 [Compound 531] | 5 to 20 | < 0.1 | – | –
31 | CC(C)(C)C#Cc1ncn2c1Cc1cnnn1-c1cc(Cl)ccc1-2 [Compound 534] | 5 to 20 | < 0.1 | – | –
32 | COc1ccc2c(c1)-n1nncc1Cc1c(C#CC(C)(C)C)ncn1-2 [Compound 535] | 5 to 20 | < 0.1 | – | –
33 | CC(C)(C)c1nc(-c2ncn3c2Cc2cnnn2-c2cc(Cl)ccc2-3)no1 [Compound 536] | 20 to 50 | < 0.1 | – | –
34 | Clc1ccc2c(c1)-n1nncc1Cc1c(-c3noc(-c4ccccc4)n3)ncn1-2 [Compound 537] | 20 to 50 | < 0.1 | – | –
35 | CC(C)c1nc(-c2ncn3c2Cc2cnnn2-c2cc(Cl)ccc2-3)no1 [Compound 538] | 20 to 50 | < 0.1 | – | –
36 | Cc1nc(-c2ncn3c2Cc2cnnn2-c2cc(Cl)ccc2-3)no1 [Compound 539] | 5 to 20 | < 0.1 | – | –
37 | Clc1ccc2c(c1)-n1nncc1Cc1c(COCc3ccccc3)ncn1-2 [Compound 544] | 5 to 20 | < 0.1 | – | –
38 | COc1ccc(C#Cc2ncn3c2Cc2cnnn2-c2cc(C(F)(F)F)ccc2-3)cn1 [Compound 553] | 5 to 20 | < 0.1 | – | –

Row | Compound | activation at 0.1 µM (GABAA receptors (α5β2γ2); @ 100 nM, ranges) [%] | Ki (α5β3γ2 GABAA receptors; [1]) [µM] | activation at 0.1 µM (GABAA receptors (α5β2γ2)) [%] | Ki (α5β3γ2 GABAA receptors) [µM]
39 | COc1ccc(C#Cc2ncn3c2Cc2cnnn2-c2cc(OC(F)F)ccc2-3)cn1 [Compound 555] | 5 to 20 | < 0.1 | – | –
40 | COCc1nnc2n1Cc1c(C#Cc3cncc(C)c3)ncn1-c1ccc(Cl)cc1-2 [Compound 558] | 5 to 20 | < 0.1 | – | –
41 | COCc1nnc2n1Cc1c(C#Cc3cncc(OC)c3)ncn1-c1ccc(Cl)cc1-2 [Compound 559] | 5 to 20 | < 0.1 | – | –
42 | COCc1nnc2n1Cc1c(C#Cc3ccc(C)nc3)ncn1-c1ccc(OC)cc1-2 [Compound 561] | 20 to 50 | < 0.1 | – | –
43 | COCc1nnc2n1Cc1c(C#Cc3ccc(C)cn3)ncn1-c1ccc(OC)cc1-2 [Compound 562] | 20 to 50 | < 0.1 | – | –
44 | COCc1nnc2n1Cc1c(C#Cc3cncc(OC)c3)ncn1-c1ccc(OC)cc1-2 [Compound 566] | 5 to 20 | < 0.1 | – | –
45 | COCc1nnc2n1Cc1c(C#Cc3ccnc(OC)c3)ncn1-c1ccc(OC)cc1-2 [Compound 567] | 5 to 20 | < 0.1 | – | –
46 | COCc1nnc2n1Cc1c(C#Cc3ccnc(OC)c3)ncn1-c1ccc(Cl)cc1-2 [Compound 570] | 5 to 20 | < 0.1 | – | –
47 | COCc1nnc2n1Cc1c(C#Cc3ncc(OC)cn3)ncn1-c1ccc(Cl)cc1-2 [Compound 574] | > 50 | < 0.1 | – | –
48 | COCc1nnc2n1Cc1c(C#Cc3cnccn3)ncn1-c1ccc(Cl)cc1-2 [Compound 576] | 20 to 50 | < 0.1 | – | –
49 | COCc1nnc2n1Cc1c(C#Cc3ccc(OC)c(C)n3)ncn1-c1ccc(Cl)cc1-2 [Compound 581] | 20 to 50 | < 0.1 | – | –
50 | COCc1nnc2n1Cc1c(C#Cc3cnc(C)cn3)ncn1-c1ccc(Cl)cc1-2 [Compound 582] | > 50 | < 0.1 | – | –
51 | COCc1nnc2n1Cc1c(C#Cc3cnccn3)ncn1-c1ccc(OC)cc1-2 [Compound 589] | > 50 | < 0.1 | – | –
52 | COCc1nnc2n1Cc1c(C#Cc3cccc(C)n3)ncn1-c1ccc(Cl)cc1-2 [Compound 596] | > 50 | < 0.1 | – | –
53 | COCc1nnc2n1Cc1c(C#Cc3cnc(C)s3)ncn1-c1ccc(OC)cc1-2 [Compound 597] | > 50 | < 0.1 | – | –
54 | COCc1nnc2n1Cc1c(C#Cc3ccc(OC)cn3)ncn1-c1ccc(OC)cc1-2 [Compound 603] | > 50 | < 0.1 | – | –
55 | CCc1cncc(C#Cc2ncn3c2Cn2c(COC)nnc2-c2cc(Cl)ccc2-3)c1 [Compound 604] | > 50 | < 0.1 | – | –
56 | COCc1nnc2n1Cc1c(C#Cc3nc(C)cs3)ncn1-c1ccc(Cl)cc1-2 [Compound 605] | > 50 | < 0.1 | – | –
57 | COCc1nnc2n1Cc1c(C#Cc3cnc(OC)s3)ncn1-c1ccc(Cl)cc1-2 [Compound 606, 5-((3-chloro-7-(methoxymethyl)-9H-benzo[f]imidazo[1,5-a][1,2,4]triazolo[4,3-d][1,4]diazepin-10-yl)ethynyl)-2-methoxythiazole] | 20 to 50 | < 0.1 | – | –
